US20230310347A1, “BACTERICIDE” (priority 2020, published 2023)

How the values were obtained:
[1] = system: Propionibacterium acnes (GAI 5419); experiment: Bactericidal property (Propionibacterium acnes), number of viable bacteria; assay type: cell-based; details: for bactericidal effects against Cutibacterium acnes (in words): each ingredient alone, concentration not given
Description: Propionibacterium acnes (GAI 5419) was inoculated on a GAM agar medium (manufactured by Nissui Pharmaceutical Co., Ltd.) and precultured under anaerobic conditions at 35° C.±1° C. for 18 to 24 hours. A solution containing Propionibacterium acnes was prepared by diluting the solution to 10^7 to 10^8 bacteria/mL of Propionibacterium acnes with physiological saline.
Next, 10 mL of the samples obtained in Preparation Example 1 were inoculated with 0.1 mL of the above-mentioned solution containing Propionibacterium acnes. These were stored at room temperature for 30 minutes and then diluted 10-fold with an SCDLP agar medium (manufactured by Nihon Pharmaceutical Co., Ltd.) and neutralized. These were poured onto a GAM agar medium (manufactured by Nissui Pharmaceutical Co., Ltd.) according to the pour plate culture method, and anaerobically cultured at 35° C.±1° C. for 2 to 5 days. After that, the numbers of viable bacteria were determined from the numbers of colonies formed and the dilution factor. It is noted that physiological saline was used for the control in place of the samples.
The numbers of viable bacteria were determined in the same manner as Experiment Example 1-1 except that the samples obtained in Preparation Example 1 were changed to the samples obtained in Preparation Example 2.
The numbers of viable bacteria were determined in the same manner as Experiment Example 1-1 except that the samples obtained in Preparation Example 1 were changed to the above-mentioned Samples α30 to α33.
Furthermore, Sample β20 (100 μg/mL of Hinokitiol+100 μg/mL of linalool) was prepared in the same manner as Sample al except that tea tree oil was changed to linalool.

[2] = Storage stability of ingredient (B) alone or mixed with Hinokitiol, GC area percentage; assay type: physicochemical
Description: The storage stability of limonene alone and the storage stability of limonene mixed with Hinokitiol were evaluated.
Specifically, limonene was placed in a glass vial, which was hermetically sealed by tightening a septum with an aluminum cap.
Furthermore, 50 parts by mass of limonene and 50 parts by mass of Hinokitiol were mixed, placed in a glass vial different from the above-described glass vial, and hermetically sealed by tightening a septum with an aluminum cap. These two samples were stored at 60° C. for 7 days, and the area percentage of limonene in the glass vials was measured by GC (the instrument: GC-2010 Plus manufactured by Shimadzu Corporation; the detector: flame ionization detector; the column: DB-624 manufactured by Agilent Technologies Japan, Ltd.) immediately after the start of the experiment, after 1 day, after 4 days, and after 7 days. The initial data (immediately after the start of the experiment) was the GC measurement result of limonene alone.
Regarding α-terpinene, γ-terpinene, and terpinen-4-ol, the storage stability of each of these alone and the storage stability of each of these mixed with Hinokitiol were evaluated.
Specifically, measurements were made in the same manner as Experiment Example 6-1 except that limonene was changed to α-terpinene, γ-terpinene, and terpinen-4-ol, respectively. It is noted that, regarding γ-terpinene, GC measurements were only made immediately after the start of the experiment, after one day, and after seven days.

[3] = 60° C., After 1 day, Hinokitiol Absent
[4] = 60° C., After 1 day, Hinokitiol Present (50:50 parts by mass)
[5] = 60° C., After 4 days, Hinokitiol Absent
[6] = 60° C., After 4 days, Hinokitiol Present (50:50 parts by mass)
[7] = 60° C., After 7 days, Hinokitiol Absent
[8] = 60° C., After 7 days, Hinokitiol Present (50:50 parts by mass)
[9] = Immediately after the start of the experiment, Hinokitiol Absent
[10] = Immediately after the start of the experiment, Hinokitiol Present (initial data = GC result of ingredient alone)

Molecule | bactericidal effects against Propionibacterium acnes (in words) ([1]; 100 μg/mL, Tables 1 and 2) | bactericidal effects against Propionibacterium acnes (in words) ([1]; 50 βg/mL, Table 5) | residual ratio (area percentage (%)) [2, 3] [%] | residual ratio (area percentage (%)) [2, 4] [%] | residual ratio (area percentage (%)) [2, 5] [%] | residual ratio (area percentage (%)) [2, 6] [%] | residual ratio (area percentage (%)) [2, 7] [%] | residual ratio (area percentage (%)) [2, 8] [%] | residual ratio (area percentage (%)) [2, 9] [%] | residual ratio (area percentage (%)) [2, 10] [%] | bactericidal effects against Cutibacterium acnes (in words) [1] | storage stability (in words) ([2]; when combined with a phenol derivative typified by Hinokitiol, Tables 10 to 13)
CC(C)c1cccc(=O)c(O)c1 [Hinokitiol] | insufficient bactericidal effects | insufficient bactericidal effects | – | – | – | – | – | – | – | – | – | –
CC1=CCC(O)(C(C)C)CC1 (stereo not shown) [Terpinen-4-ol, terpinen-4-ol] | insufficient bactericidal effects | insufficient bactericidal effects | 92.86 | 97.13 | 84.09 | 96.83 | 74.45 | 96.52 | 96.94 | 96.94 | insufficient | –
(+)-Limonene | no bactericidal effects | no bactericidal effects | 95.67 | 96.49 | 95.45 | 96.57 | 94.43 | 96.41 | 96.85 | 96.85 | almost no bactericidal effects | superior storage stability
CC1=CCC(C(C)C)=CC1 [γ-Terpinene, γ-terpinene] | no bactericidal effects | no bactericidal effects | 92.09 | 92.22 | – | – | 85.49 | 84.44 | 96.81 | 96.81 | almost no bactericidal effects | –
Cc1cc(O)ccc1C(C)C [Isopropylmethylphenol, 4-isopropyl-3-methylphenol] | insufficient bactericidal effects | – | – | – | – | – | – | – | – | – | – | –
CC1=CC=C(C(C)C)CC1 [α-Terpinene, α-terpinene] | no bactericidal effects | no bactericidal effects | 85.27 | 82.68 | 81.54 | 77.11 | 78.45 | 70.49 | 89.95 | 89.95 | almost no bactericidal effects | –
